In PubChem BioAssay AID1259407 (Chemical Carcinogenesis Research Information System (CCRIS), 2018):
Calls of active or inactive are those of the source. How the calls were made is not given here.

Test system: CCRIS mutagenicity, Ames/micronucleus/aberration tests
Assay: CCRIS mutagenicity studies
[1] = Test System: AMES SALMONELLA TYPHIMURIUM, Strain/Indicator: TA98, Metabolic Activation: NONE, Method: STANDARD PLATE
[2] = Test System: AMES SALMONELLA TYPHIMURIUM, Strain/Indicator: TA98, Metabolic Activation: RAT, LIVER, S-9, AROCLOR 1254, Method: STANDARD PLATE
[3] = Test System: AMES SALMONELLA TYPHIMURIUM, Strain/Indicator: TA100, Metabolic Activation: NONE, Method: STANDARD PLATE
[4] = Test System: AMES SALMONELLA TYPHIMURIUM, Strain/Indicator: TA100, Metabolic Activation: RAT, LIVER, S-9, AROCLOR 1254, Method: STANDARD PLATE

O=C1C=CC(=O)N1
mutagenic call (Test System: AMES SALMONELLA TYPHIMURIUM, Strain/Indicator: TA98, Metabolic Activation: HAMSTER, LIVER, S-9, AROCLOR 1254, Method: STANDARD PLATE): active; positive | mutagenic call [1]: active; positive | mutagenic call [2]: active; positive | mutagenic call (Test System: AMES SALMONELLA TYPHIMURIUM, Strain/Indicator: TA100, Metabolic Activation: HAMSTER, LIVER, S-9, AROCLOR 1254, Method: STANDARD PLATE): inactive; negative | mutagenic call [3]: inactive; negative | mutagenic call [4]: active; positive | mutagenic call (Test System: MOUSE LYMPHOMA, Strain/Indicator: L5178Y (TK+/TK-), Metabolic Activation: NONE, Method: SUSPENSION/PLATE): active; positive. reevaluation of results: inconclusive | mutagenic call (Test System: MOUSE LYMPHOMA, Strain/Indicator: L5178Y (TK+/TK-), Metabolic Activation: RAT, LIVER, S-9, AROCLOR 1254, Method: SUSPENSION/PLATE): active; positive. reevaluation of results: positive

CCCNc1snc2ccccc12
mutagenic call [1]: inactive; negative | mutagenic call (Test System: AMES SALMONELLA TYPHIMURIUM, Strain/Indicator: TA98, Metabolic Activation: S-9, Method: STANDARD PLATE): inactive; negative | mutagenic call [3]: inactive; negative | mutagenic call (Test System: AMES SALMONELLA TYPHIMURIUM, Strain/Indicator: TA100, Metabolic Activation: S-9, Method: STANDARD PLATE): inactive; negative | mutagenic call (Test System: AMES SALMONELLA TYPHIMURIUM, Strain/Indicator: TA1535, Metabolic Activation: NONE, Method: STANDARD PLATE): inactive; negative | mutagenic call (Test System: AMES SALMONELLA TYPHIMURIUM, Strain/Indicator: TA1535, Metabolic Activation: S-9, Method: STANDARD PLATE): inactive; negative | mutagenic call (Test System: AMES SALMONELLA TYPHIMURIUM, Strain/Indicator: TA1537, Metabolic Activation: NONE, Method: STANDARD PLATE): inactive; negative | mutagenic call (Test System: AMES SALMONELLA TYPHIMURIUM, Strain/Indicator: TA1537, Metabolic Activation: S-9, Method: STANDARD PLATE): inactive; negative

Oc1ccc(ON2P(Oc3ccc(O)cc3)N=P(Oc3ccc(O)cc3)(Oc3ccc(O)cc3)N(Oc3ccc(O)cc3)P2Oc2ccc(O)cc2)cc1 (stereo not given)
mutagenic call [1]: inactive; negative | mutagenic call [2]: inactive; negative | mutagenic call [3]: inactive; negative | mutagenic call [4]: inactive; negative
